From patent US20220280542A1, “PHOSPHORAMIDATES FOR THE TREATMENT OF HEPATITIS B VIRUS” (priority 2016, published 2022)

How the values were obtained:
Format in all cases: cell-based
[1] = Cytotoxicity by XTT staining in the HBV efficacy assay; conditions: human, HepG2.2.15 cells
Method: HepG2.2.15 cells (100 μL) in RPMI1640 medium with 10% fetal bovine serum was added to all wells of a 96-well plate at a density of 1×10^4 cells per well and the plate was incubated at 37° C. in an environment of 5% CO2 for 24 hours. Following incubation, six ten-fold serial dilutions of test compound prepared in RPMI1640 medium with 10% fetal bovine serum were added to individual wells of the plate in triplicate. Six wells in the plate received medium alone as a virus only control. The plate was incubated for 6 days at 37° C. in an environment of 5% CO2. The culture medium was changed on day 3 with medium containing the indicated concentration of each compound. One hundred microliters of supernatant was collected from each well for analysis of viral DNA by qPCR and cytotoxicity was evaluated by XTT staining of the cell culture monolayer on the sixth day.
The 50% cytotoxic concentration for the test materials are derived by measuring the reduction of the tetrazolium dye XTT in the treated tissue culture plates. XTT is metabolized by the mitochondrial enzyme NADPH oxidase to a soluble formazan product in metabolically active cells. XTT solution was prepared daily as a stock of 1 mg/mL in PBS. Phenazine methosulfate (PMS) stock solution was prepared at 0.15 mg/mL in PBS and stored in the dark at −20° C. XTT/PMS solution was prepared immediately before use by adding 40 μL of PMS per 1 mL of XTT solution. Fifty microliters of XTT/PMS was added to each well of the plate and the plate incubated for 2-4 hours at 37° C. The 2-4 hour incubation has been empirically determined to be within linear response range for XTT dye reduction with the indicated numbers of cells for each assay. Adhesive plate sealers were used in place of the lids, the sealed plate was inverted several times to mix the soluble formazan product and the plate was read at 450 nm (650 nm reference wavelength) with a Molecular Devices SpectraMax Plus 384 spectrophotometer. Data were collected by Softmax 4.6 software and imported into an Excel spreadsheet for analysis.

[2] = Cytotoxicity (CC50) Huh-7; conditions: human, Huh-7 cells
[3] = Cytotoxicity (CC50) HepG2; conditions: human, HepG2 cells
[4] = Cytotoxicity (CC50) BxPC3; conditions: human, BxPC3 cells
Cytotoxicity (CC50) CEM = conditions: human, CEM cells
Cytotoxicity (CC50) A204 = conditions: human, A204 cells
[5] = Cytotoxicity (CC50) IEC-6; conditions: rat, IEC-6 cells
Cytotoxicity (CC50) H9c = conditions: rat, H9c cells
Cytotoxicity (CC50) A549 = conditions: human, A549 cells
Cytotoxicity (CC50) Vero = conditions: African green monkey, Vero cells

SMILES	CC50 at 6 days [1] [µM]	CC50 [2] [µM]	CC50 [3] [µM]	CC50 [4] [µM]	CC50 (Cytotoxicity (CC50) CEM) [µM]	CC50 (Cytotoxicity (CC50) A204) [µM]	CC50 [5] [µM]	CC50 (Cytotoxicity (CC50) H9c) [µM]	CC50 (Cytotoxicity (CC50) A549) [µM]	CC50 (Cytotoxicity (CC50) Vero) [µM]
Nc1ccn([C@@H]2CS[C@H](CO)O2)c(=O)n1 [3TC (Lamivudine), Lamivudine, reference compound]	> 10	> 400	> 400	> 400	–	–	–	–	–	–
Cc1cn([C@H]2O[C@@H](CO)[C@H](O)[C@H]2F)c(=O)[nH]c1=O [EIDD-02020, Clevudine, reference compound]	> 100	> 400	> 400	> 400	> 400	> 400	> 400	> 400	> 400	> 400
Cc1cn([C@H]2O[C@@H](CO[P@@](=O)(N[C@@H](C)C(=O)OC(C)C)Oc3ccccc3)[C@H](O)[C@H]2F)c(=O)[nH]c1=O [EIDD-02173]	> 100	> 400	> 400	> 400	140	330	307	344	> 400	> 400
Cc1cn([C@H]2O[C@@H](CO[P@](=O)(N[C@@H](C)C(=O)OC(C)C)Oc3ccccc3)[C@H](O)[C@H]2F)c(=O)[nH]c1=O [EIDD-02174]	> 100	290	> 400	> 400	> 400	374	338	311	> 400	> 400
Cc1cn([C@H]2O[C@@H](CO[P@@](=O)(N[C@@H](C)C(=O)OC(C)C)Oc3ccccc3)[C@H](O[P@@](=O)(N[C@@H](C)C(=O)OC(C)C)Oc3ccccc3)[C@H]2F)c(=O)[nH]c1=O [EIDD-02308]	> 100	–	–	–	–	–	–	–	–	–
Cc1cn([C@H]2O[C@@H](CO[P@](=O)(N[C@@H](C)C(=O)OC(C)C)Oc3ccccc3)[C@H](O[P@](=O)(N[C@@H](C)C(=O)OC(C)C)Oc3ccccc3)[C@H]2F)c(=O)[nH]c1=O [EIDD-02309]	85.1	–	–	–	–	–	–	–	–	–
Cc1cn([C@H]2O[C@@H](CO)C(O)C2F)c(=S)[nH]c1=O (stereo partly drawn) [EIDD-02333-1]	> 100	–	–	–	–	–	–	–	–	–
Cc1cn([C@H]2O[C@@H](CO[P@](=O)(N[C@@H](C)C(=O)OC(C)C)Oc3ccccc3)C(O)C2F)c(=S)[nH]c1=O (stereo partly drawn) [EIDD-02334-1]	> 100	–	–	–	–	–	–	–	–	–
Cc1cn([C@H]2O[C@@H](CO[P@@](=O)(N[C@@H](C)C(=O)OC(C)C)Oc3ccccc3)C(O)C2F)c(=S)[nH]c1=O (stereo partly drawn) [EIDD-02335-1]	> 100	–	–	–	–	–	–	–	–	–
